Common to all, as to assay: ≥ marks a high value that may be exact or a test limit, other limits are often not marked, values filed in µg/mL are converted to µM
Test [1] concerns Erwinia amylovora PMV 6076.
Test [2] deals with Xanthomonas arboricola pv. pruni CFBP 5563.
In test [3] the test system is Xanthomonas fragariae Xf349-9A.
For test [4], the system named is Pseudomonas syringae pv. actinidiae Psa3700.1.1.
For test [5], the system named is Pseudomonas syringae pv. syringae EPS 94.
Test [6] has as its system Xanthomonas campestris pv. Vesicatoria 2133-2.
In test [7] the test system is Pseudomonas aeruginosa DSM 1128.
Test [8] concerns Klebsiella pneumoniae DSM 681.
Test [9] has as its system Escherichia coli DSM 1103.
Test [10] concerns Streptococcus pneumoniae DSM 11865.
Test [11] concerns Staphylococcus aureus ATCC 25923.
Test [12] concerns Cryptococcus neoformans ATCC 34881.
For test [13], the system named is Micrococcus luteus ATCC 10240.
Test [14] relates to Pseudomonas aeruginosa ATCC 27853.
The test system of test [15] is Staphylococcus aureus ATCC 15752.
In test [16] the test system is Salmonella typhimurium KCTC 2370.
The subject of test [17] is Enterococcus faecalis ATCC 29212.
Test [18] has as its system Saccharomyces cerevisiae ATCC 44774.
In test [19] the test system is Escherichia coli ATCC 27325.
Test [20] deals with Bacillus subtilis KCTC 3038.
The subject of test [21] is Candida albicans ATCC 10231.
The subject of test [22] is Pectobacterium carotovorum subsp. carotovorum DSM 30168.
Test [23] deals with Pseudomonas corrugata DSM 7228.
The test system of test [24] is Cladosporium herbarum.
Test [25] has as its system Pseudomonas syringae pv. tomato DC3000.
For test [26], the system named is Clavibacter michiganensis subsp. michiganensis DSM 46294.
Test [27] has as its system Botrytis cinerea.
Test [28] relates to Alternaria alternata.
In test [29] the test system is Pseudomonas syringae pv. syringae DSM 10604.
The test system of test [30] is Xanthomonas vesicatoria DSM 50861.
For test [31], the system named is Trichosporon beigelii KCTC 7707.
The subject of test [32] is Malassezia furfur KCTC 7744.
In test [33] the test system is Candida parapsilosis ATCC 22019.
Test [34] has as its system Candida albicans ATCC 90028.

Values after ≈ are worked out from the molar mass of the structure shown. Bounds are passed on as bounds.

Consider `CC[C@H](C)[C@H](NC(=O)[C@H](CCC(=O)O)NC(=O)[C@H](CC(N)=O)NC(=O)[C@H](CC(C)C)NC(=O)[C@H](C)NC(=O)[C@H](CCCCN)NC(=O)[C@@H](N)CCC(N)=O)C(=O)N[C@@H](CC(N)=O)C(=O)N[C@@H](CCC(N)=O)C(=O)N[C@@H](Cc1ccccc1)C(N)=O` [QKALNEINQF], for which the minimal inhibitory concentration (MIC) in [1], in test [2], in [3], in test [4], in test [5] and in test [6] was not below 50 µM each time.
As for `CC[C@H](C)[C@H](NC(=O)[C@H](CCC(N)=O)NC(=O)[C@H](CCC(=O)O)NC(=O)[C@H](CCC(=O)O)NC(=O)[C@H](CCCCN)NC(=O)[C@@H]1CCCN1C(=O)[C@H](CC(C)C)NC(=O)[C@H](C)NC(=O)[C@H](CO)NC(=O)[C@H](CC(C)C)NC(=O)[C@@H](NC(=O)[C@H](C)N)C(C)C)C(=O)NCC(=O)N[C@@H](CCCCN)C(=O)N[C@@H](C)C(=O)N[C@@H](CO)C(=O)N[C@H](C(=O)N[C@@H](CCCN=C(N)N)C(=O)NCC(=O)N[C@@H](CCCN=C(N)N)C(=O)N[C@@H](CCCCN)C(=O)N[C@@H](C)C(=O)N[C@@H](C)C(=O)N[C@@H](CCCN=C(N)N)C(=O)N[C@@H](CCCN=C(N)N)C(=O)N[C@@H](CCCCN)C(=O)N[C@@H](CCCCN)C(=O)O)[C@@H](C)O` [AVLSALPKEEQIGKASTRGRKAARRKK], the minimum inhibitory concentration (MIC) was not below 102 µM in [7]; not below 102 µM in test [8]; not below 102 µM in test [9]; not below 102 µM in test [10]; more than 102 µM in test [11].
Consider `CC(C)[C@H](NC(=O)CNC(=O)[C@H](CCC(N)=O)NC(=O)[C@@H](NC(=O)[C@@H](NC(=O)[C@@H]1CCCN1C(=O)[C@H](CCCN=C(N)N)NC(=O)[C@@H](NC(=O)[C@@H](NC(=O)[C@@H](N)CCCN=C(N)N)C(C)C)C(C)C)C(C)C)C(C)C)C(=O)N[C@@H](CCCCN)C(=O)N[C@@H](CCC(=O)O)C(=O)N[C@@H](CCCCN)C(=O)N[C@H](C(=O)N[C@@H](CCCN=C(N)N)C(=O)O)C(C)C` [RVVRPVVQGVKEKVR], for which the minimum inhibitory concentration (MIC) is not below 36.6 µM in test [12]; not below 36.6 µM in test [13]; more than 36.6 µM in [14]; not below 36.6 µM in [15]; not below 36.6 µM in test [16]; more than 36.6 µM in [17]. In addition, the MIC in test [18] is not below 36.6 µM; in test [19], not below 36.6 µM; in test [20], not below 36.6 µM; in test [21] it was more than 36.6 µM.
Take `CC(C)C[C@H](NC(=O)[C@H](C)NC(=O)[C@H](CCCCN)NC(=O)[C@@H](N)CC(C)C)C(=O)N[C@@H](CCCN=C(N)N)C(=O)N[C@@H](CCCCN)C(=O)N[C@@H](C)C(=O)N[C@@H](CC(C)C)C(=O)N[C@@H](CCCCN)C(=O)N[C@@H](Cc1cnc[nH]1)C(=O)N[C@@H](CC(C)C)C(=O)N[C@@H](C)C(N)=O` [LKALRKALKHLA]: the MIC in [22] was 29.4 µM (≈ 40 µg/mL); in test [23] it was 29.4 µM (≈ 40 µg/mL); in test [24] it was 14.7 µM (≈ 20 µg/mL); in [25], 1.84 µM (≈ 2.5 µg/mL); in [26] it was 29.4 µM (≈ 40 µg/mL); in test [27], not below 73.4 µM. For the same compound, the results for the minimal inhibitory concentration (MIC) in [28], in [29] and in [30] were not below 73.4 µM, 7.34 µM (≈ 9.99 µg/mL) and 14.7 µM (≈ 20 µg/mL), respectively.
In the case of `CC[C@H](C)[C@H](NC(=O)[C@H](C)NC(=O)[C@H](CCCCN)NC(=O)[C@H](CCCN=C(N)N)NC(=O)[C@H](CS)NC(=O)[C@H](CCCN=C(N)N)NC(=O)[C@H](CCCCN)NC(=O)[C@@H](NC(=O)[C@H](CC(N)=O)NC(=O)[C@H](CCCN=C(N)N)NC(=O)[C@H](CCC(=O)O)NC(=O)[C@H](CS)NC(=O)[C@H](CO)NC(=O)[C@@H](NC(=O)[C@H](CCCCN)NC(=O)[C@H](Cc1cnc[nH]1)NC(=O)[C@H](CC(N)=O)NC(=O)CNC(=O)[C@H](CC(C)C)NC(=O)[C@H](CCCCN)NC(=O)[C@H](CCCCN)NC(=O)[C@H](CCSC)NC(=O)[C@@H](N)CCCN=C(N)N)C(C)C)[C@@H](C)O)C(=O)O` [RMKKLGNHKVSCERNTKRCRKAI], the MIC in test [31] was 20 µM (≈ 55.1 µg/mL); in [32], 14.1 µM (≈ 39 µg/mL); in [33], 10 µM (≈ 27.6 µg/mL); in test [34] it was 10 µM (≈ 27.6 µg/mL).

The values above are taken from DBAASP.
